According to paper PMC8545353 (ACS chemical biology, 2021):
In brackets after ≈: the same amount, converted by molar mass. Non-standard residues stand in square brackets, D forms with d. Residues, ends and D or L forms follow the SMILES beside them. NMeY = CN[C@@H](Cc1ccc(O)cc1)C(=O)O; dNMeF = CN[C@H](Cc1ccccc1)C(=O)O; Sar = CNCC(=O)O

Assay: physchem
Settings: aqueous

CC[C@H](C)[C@@H]1NC(=O)[C@H](Cc2ccc(O)cc2)N(C)C(=O)[C@H](Cc2ccccc2)NC(=O)CN(C)C(=O)[C@@H]2CCCN2C(=O)[C@@H](Cc2ccccc2)N(C)C(=O)[C@H](CC(C)C)NC1=O [Compound 1, cordyheptapeptide A] (cyclo(F[NMeY]IL[dNMeF]P[Sar]))
solubility: 3.9 µM (≈ 3.43 µg/mL)
